Active and inactive are the calls of the source.
Tests used:
[1] = target: Voltage-dependent T-type calcium channel subunit alpha-1H (Homo sapiens, UniProt O95180); format: functional;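 further: channel activity triggered by adding a high calcium stimulation buffer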
[2] = Trypanosoma cruzi growth suppression in host cells – NIH3T3 host cells, beta-gal luminescence, confirmation (AID 2044); format: functional, cell-based;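 further: intracellular parasites grown in NIH/3T3 mouse fibroblasts as host cells; luminescent beta-galactosidase reporter signal from transgenic T. cruzi replicating inside host cells; inhibitors lower the luminescence signal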
[3] = NIH3T3 cell viability loss – ATP luminescence, mouse fibroblasts, counter-screen, dose response (AID 2010); format: functional, cell-based;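 further: cells exposed to compound for about 90 hours before reading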
[4] = target: T1, Ubiquitin-conjugating enzyme E2 N (Homo sapiens, UniProt P61088); format: functional;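 further: Dose-response confirmation in a TR-FRET assay detecting UBC13-driven polyubiquitin chain formation, inhibition measured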
T1 sequence (P61088 whole entry): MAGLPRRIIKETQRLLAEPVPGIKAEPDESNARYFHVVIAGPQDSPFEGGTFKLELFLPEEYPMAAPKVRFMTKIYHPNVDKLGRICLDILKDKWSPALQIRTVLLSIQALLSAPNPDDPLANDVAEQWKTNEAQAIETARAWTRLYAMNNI

[5] = target: Beta-galactosidase (Escherichia coli, UniProt Q8VNN2); assay: detection-enzyme interference by beta-gal modulators – biochemical, E. coli enzyme, set 3, artefact control for CCR6 antagonist project, dose response (AID 504712); format: functional
[6] = target: Cytochrome P450 2C19 (Homo sapiens, UniProt P33261); assay: Cytochrome panel assay with activity outcomes. Panel member name: p450-cyp2c19 Compounds with AC50 equal or less than 10 uM are considered active; format: functional
[7] = target: Cytochrome P450 2D6 (Homo sapiens, UniProt P10635)
[8] = target: Melanocortin receptor 4 (Homo sapiens, UniProt P32245); format: functional, cell-based;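 further: Cell-based assay with luminescence read-out, confirmatory dose-response testing for agonist activity of biased ligands at MC4R; human U2OS cells with tagged receptor and beta-arrestin; potency of agonists that increase receptor coupling to beta-arrestin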
[9] = tested on: H9c2; assay: cells; format: functional, cell-based; details: Rattus norvegicus, H9c2, Myocardium;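 further: confirmatory concentration-response retest of ultra-high-throughput screening hits for modulation of myocardial damage; cell death induced by hydrogen peroxide oxidative stress; compound pretreatment for 60 min then peroxide exposure for 2 h; potency is for protecting the cells against peroxide damage rather than for killing them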
[10] = viability of uninfected HEp-2 cells – cell-based, HTS, cytotoxicity control for RSV inhibitor project, dose response (AID 2410); format: functional; details: human respiratory syncytial virus
[11] = target: T2, Rac GTPase-activating protein 1 (Homo sapiens, UniProt Q9H0H5); assay: blockers of MgcRacGAP-driven Rac1 GTP hydrolysis – biochemical, ADP Hunter fluorescence, primary and confirmatory, confirmation (AID 624330); format: functional
T2 sequence (Q9H0H5 whole entry): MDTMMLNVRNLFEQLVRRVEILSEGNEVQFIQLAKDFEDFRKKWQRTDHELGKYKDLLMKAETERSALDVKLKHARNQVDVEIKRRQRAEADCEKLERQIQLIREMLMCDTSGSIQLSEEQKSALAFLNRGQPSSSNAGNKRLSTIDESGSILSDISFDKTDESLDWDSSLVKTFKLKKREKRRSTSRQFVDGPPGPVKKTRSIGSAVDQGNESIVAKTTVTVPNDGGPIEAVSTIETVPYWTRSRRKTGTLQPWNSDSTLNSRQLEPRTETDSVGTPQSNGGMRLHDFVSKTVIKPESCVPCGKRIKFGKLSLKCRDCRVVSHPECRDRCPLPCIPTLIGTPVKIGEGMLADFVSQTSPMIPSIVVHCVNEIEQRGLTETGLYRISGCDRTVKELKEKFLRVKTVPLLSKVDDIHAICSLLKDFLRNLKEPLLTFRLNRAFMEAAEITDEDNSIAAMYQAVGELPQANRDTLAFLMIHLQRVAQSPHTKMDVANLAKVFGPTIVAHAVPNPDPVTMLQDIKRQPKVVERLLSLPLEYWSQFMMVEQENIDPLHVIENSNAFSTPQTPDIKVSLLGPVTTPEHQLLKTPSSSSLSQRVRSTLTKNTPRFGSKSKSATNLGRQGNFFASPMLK

[12] = target: Cytochrome P450 3A4 (Homo sapiens, UniProt P08684); details: Potency;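 further: confirmatory qHTS run detecting inhibitors and substrates of CYP3A4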
[13] = target: T3, Low molecular weight phosphotyrosine protein phosphatase (Homo sapiens, UniProt P24666); format: functional; details: read-out: IC50_Mean;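 further: Dose-response confirmation assay measuring inhibition of LMPTP enzyme activity by fluorescence intensity read-out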
T3 sequence (P24666 whole entry): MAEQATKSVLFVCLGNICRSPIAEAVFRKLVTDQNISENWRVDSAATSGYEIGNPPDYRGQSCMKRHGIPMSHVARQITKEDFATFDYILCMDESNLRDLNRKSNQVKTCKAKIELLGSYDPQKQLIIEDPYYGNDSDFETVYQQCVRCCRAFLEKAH

[14] = target: T4, Cytochrome P450 1A2 (Homo sapiens, UniProt P05177);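 further: PubChem cytochrome P450 panel assay, CYP1A2 panel member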
T4 sequence (P05177 whole entry): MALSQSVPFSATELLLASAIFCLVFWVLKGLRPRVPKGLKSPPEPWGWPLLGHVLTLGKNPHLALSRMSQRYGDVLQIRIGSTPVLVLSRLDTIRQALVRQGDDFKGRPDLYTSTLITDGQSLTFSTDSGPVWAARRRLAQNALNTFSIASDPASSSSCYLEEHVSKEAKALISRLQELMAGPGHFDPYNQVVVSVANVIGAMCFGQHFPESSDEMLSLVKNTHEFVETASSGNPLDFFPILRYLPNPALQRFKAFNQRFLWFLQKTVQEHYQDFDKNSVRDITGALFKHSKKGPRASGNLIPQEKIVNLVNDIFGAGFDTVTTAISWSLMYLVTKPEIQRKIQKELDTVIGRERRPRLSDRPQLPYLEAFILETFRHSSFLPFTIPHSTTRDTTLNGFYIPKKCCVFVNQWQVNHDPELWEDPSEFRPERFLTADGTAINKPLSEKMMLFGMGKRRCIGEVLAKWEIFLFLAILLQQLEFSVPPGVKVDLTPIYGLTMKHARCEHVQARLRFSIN

[15] = tested on: Streptococcus sp. 'group A'; assay: Streptococcus pyogenes SK(-)GAS viability under kanamycin – luminescence, BacTiterGlo, confirmation, counter-screen for streptokinase expression inhibitor project, dose response (AID 1900); format: functional, organism-based
[16] = target: T5, Streptokinase A (Streptococcus pyogenes serotype M1, UniProt P10520); assay: viability-normalized secreted streptokinase activity reduction – plasminogen activation absorbance, OD405, dose response (AID 1914); format: functional, Streptococcus pyogenes M1 GAS;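 further: secreted streptokinase activity via plasminogen activation per viability signal from cell pellet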
T5 sequence (P10520 whole entry): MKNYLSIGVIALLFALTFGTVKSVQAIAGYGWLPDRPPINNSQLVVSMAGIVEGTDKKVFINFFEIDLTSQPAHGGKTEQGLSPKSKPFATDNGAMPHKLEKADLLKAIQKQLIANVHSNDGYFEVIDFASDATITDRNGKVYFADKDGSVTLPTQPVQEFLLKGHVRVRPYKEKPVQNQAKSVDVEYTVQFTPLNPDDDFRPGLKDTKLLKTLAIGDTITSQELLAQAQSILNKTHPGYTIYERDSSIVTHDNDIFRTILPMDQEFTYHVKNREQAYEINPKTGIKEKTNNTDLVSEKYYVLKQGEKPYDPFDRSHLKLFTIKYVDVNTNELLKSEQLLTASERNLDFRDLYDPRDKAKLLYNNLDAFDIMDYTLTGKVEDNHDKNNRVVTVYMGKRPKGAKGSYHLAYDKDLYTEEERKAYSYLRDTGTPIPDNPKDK

[17] = tested on: Streptococcus; assay: GAS UMAA2166 growth inhibition – luminescence, BacTiterGlo, counter-screen for streptokinase expression inhibitor project, dose response (AID 1915); format: functional, organism-based;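 further: potency for reduction of bacterial viability or growth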
[18] = target: T6, Carboxy-terminal domain RNA polymerase II polypeptide A small phosphatase 1 (Homo sapiens, UniProt Q9GZU7); assay: CTDSP1 inhibitors, concentration-response, biochemical, absorbance readout, ultra-high-throughput screen actives (AID 540297); format: functional
T6 sequence (Q9GZU7 whole entry): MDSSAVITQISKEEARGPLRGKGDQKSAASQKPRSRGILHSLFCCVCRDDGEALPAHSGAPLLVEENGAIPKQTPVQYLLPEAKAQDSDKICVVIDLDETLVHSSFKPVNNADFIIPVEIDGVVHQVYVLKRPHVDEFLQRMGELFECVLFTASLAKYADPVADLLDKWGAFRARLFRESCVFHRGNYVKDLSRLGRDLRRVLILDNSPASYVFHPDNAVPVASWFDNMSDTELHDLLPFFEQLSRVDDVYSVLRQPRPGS

[19] = Luminescence Cell-Based Dose Retest to Confirm Inhibitors of Cancer Stem Cells. [Related pubchem assays (depositor defined):AID2717, AID2721]; format: functional; details: Homo sapiens
[20] = target: T7, Heat shock factor protein 1 (Mus musculus, UniProt P38532); assay: enhancement of HSF1-driven luciferase signal – cell-based, NIH3T3, luminescence, dose retest, confirmation (AID 435004); format: functional;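 further: stress induced by proteasome inhibitor MG132 added 30 min after compound; luciferase reporter driven by HSF1 response element in NIH3T3 cells; actives raise luminescence as potentiators of the MG132 stress response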
T7 sequence (P38532 whole entry): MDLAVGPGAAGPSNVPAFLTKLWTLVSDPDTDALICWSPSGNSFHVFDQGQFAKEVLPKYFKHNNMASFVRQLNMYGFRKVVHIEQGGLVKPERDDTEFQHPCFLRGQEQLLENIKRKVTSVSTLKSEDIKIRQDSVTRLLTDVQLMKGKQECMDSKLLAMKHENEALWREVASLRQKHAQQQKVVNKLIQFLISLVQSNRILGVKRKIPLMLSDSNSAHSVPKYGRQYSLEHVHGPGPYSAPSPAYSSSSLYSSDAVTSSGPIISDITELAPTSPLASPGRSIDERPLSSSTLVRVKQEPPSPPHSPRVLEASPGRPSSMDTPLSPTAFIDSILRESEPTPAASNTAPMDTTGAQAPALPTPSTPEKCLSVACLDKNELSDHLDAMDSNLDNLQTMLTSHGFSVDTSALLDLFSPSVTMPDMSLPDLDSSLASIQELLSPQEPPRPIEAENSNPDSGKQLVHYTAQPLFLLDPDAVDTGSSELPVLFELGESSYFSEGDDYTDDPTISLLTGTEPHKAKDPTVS

[21] = tested on: Vero; assay: cells; format: functional, cell-based; details: Chlorocebus sabaeus
[22] = HEK-293T viability loss after treatment – luminescence, T-cell screen hits, cytotoxicity control for TCR NF-kB inhibitor project, dose response (AID 489026); format: functional, cell-based;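 further: cells exposed to compound about 14 hours before the viability readout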
[23] = tested on: Vero; assay: cells; format: functional; details: Chlorocebus sabaeus
[24] = target: Paired box protein Pax-8 (Homo sapiens, UniProt Q06710); assay: PAX8 transcriptional activity inhibition in RMG-I – RMG-I cells, luciferase, cherry-pick, dose response (AID 687027); format: functional, cell-based;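 further: luciferase reporter driven by Pax8 target thyroperoxidase promoter measured by SteadyGlo luminescence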
Chain of Paired box protein Pax-8 (Q06710 whole entry): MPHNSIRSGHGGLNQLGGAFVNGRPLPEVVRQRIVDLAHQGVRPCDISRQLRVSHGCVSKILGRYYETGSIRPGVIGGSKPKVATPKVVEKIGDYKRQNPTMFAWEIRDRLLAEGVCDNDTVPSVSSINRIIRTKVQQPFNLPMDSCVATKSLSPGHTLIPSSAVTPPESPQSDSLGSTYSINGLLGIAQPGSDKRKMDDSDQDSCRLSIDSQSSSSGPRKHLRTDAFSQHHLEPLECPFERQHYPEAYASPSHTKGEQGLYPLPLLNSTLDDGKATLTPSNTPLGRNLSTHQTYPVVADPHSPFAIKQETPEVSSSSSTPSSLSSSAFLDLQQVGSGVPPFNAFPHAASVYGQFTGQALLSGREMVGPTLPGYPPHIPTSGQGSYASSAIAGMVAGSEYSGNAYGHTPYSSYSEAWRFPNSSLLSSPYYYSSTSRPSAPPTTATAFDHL

Chain of Beta-galactosidase (Q8VNN2 whole entry): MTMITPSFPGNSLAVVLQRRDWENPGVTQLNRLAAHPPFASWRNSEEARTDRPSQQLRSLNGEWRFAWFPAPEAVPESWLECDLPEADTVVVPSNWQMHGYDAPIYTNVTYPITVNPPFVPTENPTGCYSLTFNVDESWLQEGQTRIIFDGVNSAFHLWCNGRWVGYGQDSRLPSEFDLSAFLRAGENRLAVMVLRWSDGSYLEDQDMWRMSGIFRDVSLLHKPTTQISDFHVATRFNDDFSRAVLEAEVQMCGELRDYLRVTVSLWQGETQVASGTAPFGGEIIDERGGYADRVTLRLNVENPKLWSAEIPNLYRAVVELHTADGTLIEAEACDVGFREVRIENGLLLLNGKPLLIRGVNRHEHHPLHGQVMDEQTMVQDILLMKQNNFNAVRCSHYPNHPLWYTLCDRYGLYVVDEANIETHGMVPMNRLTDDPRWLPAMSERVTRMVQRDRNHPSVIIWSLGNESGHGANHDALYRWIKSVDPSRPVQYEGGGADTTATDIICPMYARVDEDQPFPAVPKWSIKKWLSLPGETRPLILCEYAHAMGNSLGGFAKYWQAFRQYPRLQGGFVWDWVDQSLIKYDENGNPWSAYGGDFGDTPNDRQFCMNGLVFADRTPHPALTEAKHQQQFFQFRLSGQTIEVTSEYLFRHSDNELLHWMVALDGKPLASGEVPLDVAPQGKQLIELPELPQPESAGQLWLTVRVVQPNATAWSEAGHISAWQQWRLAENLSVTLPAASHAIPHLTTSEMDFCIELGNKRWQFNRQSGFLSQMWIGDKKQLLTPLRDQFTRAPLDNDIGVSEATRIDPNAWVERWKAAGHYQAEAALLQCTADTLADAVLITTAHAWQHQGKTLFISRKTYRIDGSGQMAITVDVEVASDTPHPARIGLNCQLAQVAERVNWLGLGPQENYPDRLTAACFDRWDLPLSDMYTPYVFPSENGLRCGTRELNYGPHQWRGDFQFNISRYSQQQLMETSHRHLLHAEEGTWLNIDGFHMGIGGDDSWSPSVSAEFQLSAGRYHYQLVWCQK
Chain of Melanocortin receptor 4 (P32245 whole entry): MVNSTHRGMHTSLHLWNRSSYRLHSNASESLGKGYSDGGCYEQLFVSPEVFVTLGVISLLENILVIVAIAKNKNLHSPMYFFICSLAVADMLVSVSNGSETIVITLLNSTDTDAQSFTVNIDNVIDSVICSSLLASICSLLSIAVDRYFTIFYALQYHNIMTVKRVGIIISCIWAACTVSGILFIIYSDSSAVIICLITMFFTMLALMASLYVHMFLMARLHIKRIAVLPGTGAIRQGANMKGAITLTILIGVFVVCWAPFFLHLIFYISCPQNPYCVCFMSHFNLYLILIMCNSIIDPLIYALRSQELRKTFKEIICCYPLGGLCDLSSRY
Chain of Voltage-dependent T-type calcium channel subunit alpha-1H (O95180 whole entry): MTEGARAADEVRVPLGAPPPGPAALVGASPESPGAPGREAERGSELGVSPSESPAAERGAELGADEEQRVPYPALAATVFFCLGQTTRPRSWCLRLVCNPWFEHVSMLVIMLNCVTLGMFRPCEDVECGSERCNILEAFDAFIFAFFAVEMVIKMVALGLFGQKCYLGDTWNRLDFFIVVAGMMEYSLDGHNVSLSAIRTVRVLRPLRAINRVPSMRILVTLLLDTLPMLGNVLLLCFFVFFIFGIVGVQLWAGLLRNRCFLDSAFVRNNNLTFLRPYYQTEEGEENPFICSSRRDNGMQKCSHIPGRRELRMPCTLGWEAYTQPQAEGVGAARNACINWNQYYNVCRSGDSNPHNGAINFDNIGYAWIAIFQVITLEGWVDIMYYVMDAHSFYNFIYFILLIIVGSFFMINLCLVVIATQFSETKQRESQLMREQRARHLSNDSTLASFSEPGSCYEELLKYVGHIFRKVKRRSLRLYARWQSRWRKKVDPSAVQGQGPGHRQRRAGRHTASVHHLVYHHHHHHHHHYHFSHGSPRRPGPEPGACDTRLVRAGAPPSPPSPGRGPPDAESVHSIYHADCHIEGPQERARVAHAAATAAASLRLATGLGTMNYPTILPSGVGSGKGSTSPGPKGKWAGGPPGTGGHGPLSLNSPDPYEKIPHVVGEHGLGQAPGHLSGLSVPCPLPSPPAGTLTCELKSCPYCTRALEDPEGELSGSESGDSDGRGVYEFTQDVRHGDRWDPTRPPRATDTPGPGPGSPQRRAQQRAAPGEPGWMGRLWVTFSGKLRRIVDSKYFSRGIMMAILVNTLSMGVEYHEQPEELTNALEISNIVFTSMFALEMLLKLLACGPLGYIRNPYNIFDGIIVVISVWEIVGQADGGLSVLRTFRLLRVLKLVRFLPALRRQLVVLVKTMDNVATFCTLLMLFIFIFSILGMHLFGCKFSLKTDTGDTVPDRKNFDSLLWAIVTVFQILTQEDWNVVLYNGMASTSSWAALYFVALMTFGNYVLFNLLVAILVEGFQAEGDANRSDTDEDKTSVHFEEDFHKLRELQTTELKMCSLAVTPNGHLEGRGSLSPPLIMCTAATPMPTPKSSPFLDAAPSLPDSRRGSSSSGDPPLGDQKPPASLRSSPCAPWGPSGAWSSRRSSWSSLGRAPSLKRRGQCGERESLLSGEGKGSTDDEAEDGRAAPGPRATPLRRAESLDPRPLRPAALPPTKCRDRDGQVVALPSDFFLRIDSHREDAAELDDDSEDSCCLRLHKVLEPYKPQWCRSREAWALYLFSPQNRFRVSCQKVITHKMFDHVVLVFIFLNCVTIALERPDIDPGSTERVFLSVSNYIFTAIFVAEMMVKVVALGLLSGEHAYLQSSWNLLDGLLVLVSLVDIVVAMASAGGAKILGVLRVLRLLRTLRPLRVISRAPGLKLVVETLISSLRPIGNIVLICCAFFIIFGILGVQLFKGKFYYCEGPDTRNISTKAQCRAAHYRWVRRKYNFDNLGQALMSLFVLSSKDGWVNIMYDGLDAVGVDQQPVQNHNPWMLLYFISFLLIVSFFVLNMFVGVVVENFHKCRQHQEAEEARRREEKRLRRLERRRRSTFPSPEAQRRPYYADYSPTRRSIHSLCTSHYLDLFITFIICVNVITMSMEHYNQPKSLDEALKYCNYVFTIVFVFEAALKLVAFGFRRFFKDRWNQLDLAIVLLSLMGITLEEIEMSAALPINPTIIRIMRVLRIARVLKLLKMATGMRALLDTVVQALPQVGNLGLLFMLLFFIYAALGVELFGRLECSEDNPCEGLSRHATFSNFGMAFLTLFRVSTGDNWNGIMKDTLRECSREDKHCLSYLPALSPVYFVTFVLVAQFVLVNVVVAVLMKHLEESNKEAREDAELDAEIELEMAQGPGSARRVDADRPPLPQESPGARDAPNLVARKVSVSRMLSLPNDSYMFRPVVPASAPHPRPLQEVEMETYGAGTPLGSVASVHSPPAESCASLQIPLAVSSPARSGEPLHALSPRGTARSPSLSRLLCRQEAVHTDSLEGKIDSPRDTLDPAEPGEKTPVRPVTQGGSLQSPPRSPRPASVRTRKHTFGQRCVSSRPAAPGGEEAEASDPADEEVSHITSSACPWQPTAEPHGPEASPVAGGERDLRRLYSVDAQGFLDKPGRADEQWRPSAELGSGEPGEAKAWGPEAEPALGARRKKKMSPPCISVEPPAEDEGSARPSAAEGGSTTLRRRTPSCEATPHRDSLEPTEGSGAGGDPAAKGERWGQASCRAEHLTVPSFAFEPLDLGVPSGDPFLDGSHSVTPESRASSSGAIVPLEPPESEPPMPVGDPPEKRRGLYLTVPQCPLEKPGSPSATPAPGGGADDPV
Chain of Cytochrome P450 2D6 (P10635 whole entry): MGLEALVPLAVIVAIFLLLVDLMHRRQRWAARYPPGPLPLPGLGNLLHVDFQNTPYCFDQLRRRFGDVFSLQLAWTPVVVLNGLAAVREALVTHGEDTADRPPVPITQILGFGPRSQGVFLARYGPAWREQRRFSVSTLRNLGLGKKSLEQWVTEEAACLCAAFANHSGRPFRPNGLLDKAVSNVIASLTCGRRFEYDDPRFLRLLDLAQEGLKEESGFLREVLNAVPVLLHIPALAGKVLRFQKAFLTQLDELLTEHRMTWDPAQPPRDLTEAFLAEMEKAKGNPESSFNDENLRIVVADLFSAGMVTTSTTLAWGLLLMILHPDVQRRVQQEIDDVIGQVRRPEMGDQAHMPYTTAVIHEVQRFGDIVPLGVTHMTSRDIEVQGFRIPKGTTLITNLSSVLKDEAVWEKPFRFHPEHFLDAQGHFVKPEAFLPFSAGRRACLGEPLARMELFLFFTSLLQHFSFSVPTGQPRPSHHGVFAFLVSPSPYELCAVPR

Fc1ccc(Cn2nnnc2C(c2ccc(Cl)cc2)N2CCSCC2)cc1 (stereo not given)
EC50 [1]: 9.78 µM (active)

N=C(N)N/N=C/c1ccc2cccc(OCc3ccccc3)c2n1
EC50 [2]: 0.685 µM (active)
EC50 [3]: > 60 µM (not active)
IC50 [4]: > 20 µM (inactive)
IC50 [5]: > 66.6 µM (inactive)

Cc1c(Cl)c(S(N)(=O)=O)cc(S(N)(=O)=O)c1NC(=O)c1ccc(Cl)cc1
AC50 [6]: inconclusive
AC50 [7]: inconclusive

Cc1cc(C)nc(Nc2nc(C(N)Cc3ccc(Cl)cc3)cs2)n1 (stereo not given)
EC50 [8]: > 89.2 µM (inactive)

COc1ccc(-c2cc(NC(C)=O)c3ncc(-c4cccc(C(C)=O)c4)n3c2)cc1OC
IC50 [9]: > 79 µM (inactive)
EC50 [8]: > 89.2 µM (inactive)

C[C@]12CC[C@H]3C(=CCc4cc(O)ccc43)[C@@H]1CCC2=O [EQUILIN]
CC50 [10]: 22.6 µM (active)
IC50 [11]: 94.6 µM (active)
AC50 [12]: 39.8 µM (inconclusive)

O=C(N/N=C/C=C/c1ccccc1)c1cc2c(ccc3ccccc32)o1
IC50 [13]: 9.73 µM (active)
AC50 [14]: 0.0447 µM (inconclusive)

O=S(=O)(NCCc1csc(-c2ccccc2)n1)c1ccc2c(c1)OCCO2
EC50 [1]: 23.2 µM (active)

CO[C@@H]1COC(=O)CC=C[C@@H](C)[C@@H]2C=C[C@H](O)[C@@H](COC(=O)[C@H](C)NC(=O)CC=C[C@H]1C)O2
AC50 [7]: inconclusive

COc1ccc(CCn2c(=N)c(C(=O)NCc3ccco3)cc3c(=O)n4ccccc4nc32)cc1
IC50 [13]: 25.7 µM (inactive)
AC50 [14]: 15.8 µM (inconclusive)

O=C1CC(N2CCN(c3ccccn3)CC2)C(=O)N1CC(c1ccccc1)c1ccccc1 (stereo not given)
EC50 [1]: 5.85 µM (active)

Cc1ccc2nc(N3C(=O)CNC3=S)sc2c1
EC50 [15]: 4.9 µM (active)
EC50 [16]: > 150 µM (not active)
EC50 [17]: 11.2 µM (active)
IC50 [5]: > 66.6 µM (inactive)

COC(=O)COc1ccc2oc(=O)cc(-c3cc4cccc(OC)c4o3)c2c1
IC50 [18]: 9.43 µM (active)
IC50 [13]: 19.1 µM (active)

Sc1nnc(-c2ccccc2)n1/N=C/c1ccc(-c2ccccc2Cl)o1
AC50 [19]: 4 µM (active)
EC50 [20]: > 260 µM (inactive)
IC50 [21]: 2.17 µM (active)

CN1CCc2c(sc3c2c(=O)n(-c2ccccc2)c2nncn32)C1
AC50 [7]: inconclusive

C[C@]12CC[C@H](O)C[C@H]1CC[C@@H]1[C@@H]2CC[C@]2(C)[C@@H](C3=CC(=O)OC3)CC[C@]12O [DIGITOXIGENIN]
AC50 [19]: 0.467 µM (active)
IC50 [22]: > 80 µM (inactive)
IC50 [21]: < 0.05 µM (active)
CC50 [23]: 1.45 µM (active)
AC50 [24]: 1.38 µM (active)

CC(=O)N1c2ccc(S(=O)(=O)N3CCCC(C(=O)Nc4cccc(Cl)c4)C3)cc2CC1C (stereo not given)
IC50 [5]: > 66.6 µM (inactive)

CC(=O)Nc1cc(-c2cccc(F)c2)cn2c(-c3ccc(F)c(Cl)c3)cnc12
EC50 [8]: > 89.2 µM (inactive)

O=C(O)[C@@H](c1ccccc1)[C@@H](C(=O)O)c1ccccc1
AC50 [7]: inconclusive

COc1ccc(/C=C2\SC(=S)N(CCC(=O)NCCc3ccc(O)cc3)C2=O)cc1
IC50 [21]: > 25 µM (active)
CC50 [23]: > 25 µM (active)
